{"source": "patent US6368598B1", "about": "“Drug complex for treatment of metastatic prostate cancer” (priority 1996, dated 2002)", "key": {"[1]": {"conditions": "after administration to a person; cited from earlier work"}, "[2]": {"tested_on": "rat and human androgen independent prostate cancer cell lines", "conditions": "500 nm thapsigargin, cited from earlier work"}, "PC3 cells": {"tested_on": "PC3 cells", "assay": "Effect of TG and RT on clonogenic survival of PC3 cells", "assay_type": "cell-based, human", "conditions": "for Surviving Fraction (SF) (PE treated/PE control): plated at 24 hours", "procedure": "PC3 and DU-145 androgen-independent human prostate cancer cell lines obtained from the American Tissue Culture Collection (ATCC) are used for in vitro studies. Cells are grown as monolayer cultures in RPMI 1640 medium supplemented with 10% fetal bovine serum, 2 mM glutamine and antibiotics. Radiation survival curves and radiation-induced apoptotic DNA fragmentation patterns in these cell lines are already established in the laboratory. Cells are treated with this drug, carrier-peptide, or carrier-peptide-drug complex with or without radiation. After 24 hours, the cells are trypsinized and plated for clonogenic survival studies. Apoptotic response to the treatments is determined by: 1) agarose gel electrophoresis analysis of DNA fragmentation at 48 and 72 hours after treatment, 2) morphological observations after staining with DAPI, and 3) terminal deoxytransferase-mediated dUTP Nick End Labeling (TUNEL) assay."}, "[3]": {"tested_on": "Ca++-ATPase pumps of the endoplasmic reticulum", "conditions": "cited from earlier work"}, "[4]": {"tested_on": "human DU-145 prostate carcinoma xenograft", "assay": "Growth delay of human DU-145 prostate carcinoma xenograft in male SCID mice", "assay_type": "in vivo", "procedure": "Two human prostate carcinoma tumor lines grown as xenografts in male SCID mice are used: the human DU-145 prostate carcinoma which is not androgen dependent and the human LNCaP prostate carcinoma which produces PSA and has a well characterized androgen receptor and response to androgens. The drug complexes are administered up to maximally tolerated doses alone and in conjunction with fractionated radiation therapy (^137Cs Gamma Cell 40) delivered to the tumor bearing limb.\nThe progress of each tumor is assessed thrice weekly by caliper measurements until the tumors reach 2000 mm^3. Tumor growth delay is calculated as the number of days for each tumor to reach a volume of 500 mm^3 as compared to untreated controls. The efficacy of combination treatments is assessed using isobologram analysis for determination of additivity/synergy.\nMale SCID mice bearing the human DU-145 prostate carcinoma Xenograft growing subcutaneously in a hind-limb were treated daily with TG (0.5 mg/kg) by IP injection from day 4-18 post tumor cell implantation. Some animal groups also received fractionated RT locally to the tumor bearing region on days 7-11 or days 7-11 and 14-18."}, "[5]": {"tested_on": "DU-145 prostate cancer cells", "assay": "Effect of TG and RT on proliferation of DU-145 prostate cancer cells (cell count, trypan blue)", "assay_type": "cell-based, human", "conditions": "for Total Number of Cells per Dish: counted at 48 hours"}, "[6]": {"tested_on": "pumps of erythrocytes, plasma, or mitochondrial membranes", "conditions": "cited from earlier work"}, "[7]": {"assay": "Cleavage in pooled human serum", "assay_type": "in vitro ADME", "procedure": "(§1) A tyrosine tripeptide (compound 1 in FIG. 5) was prepared using methods known to those in the peptide chemistry art. It is known that PSA cleaves its para-nitroanilide (pNA) derivative at the tyrosine site (compound 2 in FIG. 5). (Christensson, A. et al., Eur. J Biochem., 194:755-763 (1990)). It is also known that the “released” pNA makes it possible to study this reaction colormetrically."}, "[8]": {"assay": "Cleavage in newborn calf serum", "assay_type": "in vitro ADME", "procedure": "as §1"}}, "note": "Residues, ends and D or L forms follow the SMILES beside them. *: point of attachment. pNA = O=[N+]([O-])c1ccc(N*)cc1; MeOSuc = COC(=O)CCC(=O)*", "data": [{"compound": "NCCCCNCCCF", "note": "[N-3 fluoropropylputrescine]", "values": [{"measurement": "distribution to prostate and bone relative to blood and muscle", "setting": "[1]", "value": "selectively distributed to prostate and bone"}]}, {"compound": "C/C=C(/C)C(=O)O[C@H]1C(C)=C2[C@H]([C@@H]1OC(=O)CCCCCCC)[C@@](C)(OC(C)=O)C[C@H](OC(=O)CCC)[C@@]1(O)[C@H]2OC(=O)[C@@]1(C)O", "note": "[Thapsigargin]", "values": [{"measurement": "apoptosis", "setting": "[2]; within 72 to 96 hours", "value": "undergo apoptosis"}, {"measurement": "clonogenic potential", "setting": "[2]; within 72 to 96 hours", "value": "lose their clonogenic potential"}, {"measurement": "intracellular Ca++", "setting": "[2]; lines with or without p53 expression", "value": "elevation of intracellular Ca^++"}, {"measurement": "Surviving Fraction (SF) (PE treated/PE control)", "setting": "PC3 cells; TG 20 nM, 0 Gy", "value": 0.69}, {"measurement": "NET survival (SF/TG toxicity)", "setting": "PC3 cells; TG 20 nM, 2 Gy", "value": 0.61}, {"measurement": "Surviving Fraction (SF) (PE treated/PE control)", "setting": "PC3 cells; TG 20 nM, 2 Gy", "value": 0.42}, {"measurement": "NET survival (SF/TG toxicity)", "setting": "PC3 cells; TG 20 nM, 4 Gy", "value": 0.33}, {"measurement": "Surviving Fraction (SF) (PE treated/PE control)", "setting": "PC3 cells; TG 20 nM, 4 Gy", "value": 0.23}, {"measurement": "Surviving Fraction (SF) (PE treated/PE control)", "setting": "PC3 cells; TG 50 nM, 0 Gy", "value": 0.80}, {"measurement": "NET survival (SF/TG toxicity)", "setting": "PC3 cells; TG 50 nM, 2 Gy", "value": 0.49}, {"measurement": "Surviving Fraction (SF) (PE treated/PE control)", "setting": "PC3 cells; TG 50 nM, 2 Gy", "value": 0.39}, {"measurement": "NET survival (SF/TG toxicity)", "setting": "PC3 cells; TG 50 nM, 4 Gy", "value": 0.29}, {"measurement": "Surviving Fraction (SF) (PE treated/PE control)", "setting": "PC3 cells; TG 50 nM, 4 Gy", "value": 0.23}, {"measurement": "Surviving Fraction (SF) (PE treated/PE control)", "setting": "PC3 cells; TG 100 nM, 0 Gy", "value": 0.62}, {"measurement": "NET survival (SF/TG toxicity)", "setting": "PC3 cells; TG 100 nM, 2 Gy", "value": 0.40}, {"measurement": "Surviving Fraction (SF) (PE treated/PE control)", "setting": "PC3 cells; TG 100 nM, 2 Gy", "value": 0.25}, {"measurement": "NET survival (SF/TG toxicity)", "setting": "PC3 cells; TG 100 nM, 4 Gy", "value": 0.30}, {"measurement": "Surviving Fraction (SF) (PE treated/PE control)", "setting": "PC3 cells; TG 100 nM, 4 Gy", "value": 0.18}, {"measurement": "Surviving Fraction (SF) (PE treated/PE control)", "setting": "PC3 cells; TG 200 nM, 0 Gy", "value": 0.58}, {"measurement": "NET survival (SF/TG toxicity)", "setting": "PC3 cells; TG 200 nM, 2 Gy", "value": 0.43}, {"measurement": "Surviving Fraction (SF) (PE treated/PE control)", "setting": "PC3 cells; TG 200 nM, 2 Gy", "value": 0.25}, {"measurement": "NET survival (SF/TG toxicity)", "setting": "PC3 cells; TG 200 nM, 4 Gy", "value": 0.22}, {"measurement": "Surviving Fraction (SF) (PE treated/PE control)", "setting": "PC3 cells; TG 200 nM, 4 Gy", "value": 0.13}, {"measurement": "Surviving Fraction (SF) (PE treated/PE control)", "setting": "PC3 cells; TG 400 nM, 0 Gy", "value": 0.60}, {"measurement": "NET survival (SF/TG toxicity)", "setting": "PC3 cells; TG 400 nM, 2 Gy", "value": 0.42}, {"measurement": "Surviving Fraction (SF) (PE treated/PE control)", "setting": "PC3 cells; TG 400 nM, 2 Gy", "value": 0.25}, {"measurement": "NET survival (SF/TG toxicity)", "setting": "PC3 cells; TG 400 nM, 4 Gy", "value": 0.22}, {"measurement": "Surviving Fraction (SF) (PE treated/PE control)", "setting": "PC3 cells; TG 400 nM, 4 Gy", "value": 0.13}, {"measurement": "clonogenic cell survival in vitro (result in words)", "setting": "PC3 cells; summary of Table 2", "value": "inhibits clonogenic cell survival in vitro"}, {"measurement": "inhibition of Ca++-ATPase pumps of the endoplasmic reticulum", "setting": "[3]", "value": "specifically inhibits"}, {"measurement": "tumor growth delay, combination with RT", "setting": "[4]; TG 0.5 mg/kg daily IP day 4-18 with fractionated RT days 7-11", "value": "the independent effects of TG and RT were additive"}, {"measurement": "tumor growth delay, combination with RT extended to 2 weeks", "setting": "[4]; TG 0.5 mg/kg daily IP day 4-18 with fractionated RT days 7-11 and 14-18", "value": "the additional benefit of the TG administration was maintained"}, {"measurement": "tumor growth delay", "setting": "[4]; TG 0.5 mg/kg daily IP, day 4-18, alone, FIG. 1", "value": "produced a measurable tumor growth delay"}, {"measurement": "Total Number of Cells per Dish", "setting": "[5]; TG 20 nM, 0 Gy", "value": "1.0 10^6"}, {"measurement": "Total Number of Cells per Dish", "setting": "[5]; TG 20 nM, 2 Gy 2 hours after TG", "value": "0.8 10^6"}, {"measurement": "Total Number of Cells per Dish", "setting": "[5]; TG 20 nM, 4 Gy 2 hours after TG", "value": "0.3 10^6"}, {"measurement": "Total Number of Cells per Dish", "setting": "[5]; TG 20 nM, 8 Gy 2 hours after TG", "value": "0.4 10^6"}, {"measurement": "Total Number of Cells per Dish", "setting": "[5]; TG 100 nM, 0 Gy", "value": "0.7 10^6"}, {"measurement": "Total Number of Cells per Dish", "setting": "[5]; TG 100 nM, 2 Gy 2 hours after TG", "value": "0.5 10^6"}, {"measurement": "Total Number of Cells per Dish", "setting": "[5]; TG 100 nM, 4 Gy 2 hours after TG", "value": "0.5 10^6"}, {"measurement": "Total Number of Cells per Dish", "setting": "[5]; TG 100 nM, 8 Gy 2 hours after TG", "value": "0.4 10^6"}, {"measurement": "Total Number of Cells per Dish", "setting": "[5]; TG 400 nM, 0 Gy", "value": "0.7 10^6"}, {"measurement": "Total Number of Cells per Dish", "setting": "[5]; TG 400 nM, 2 Gy 2 hours after TG", "value": "0.4 10^6"}, {"measurement": "Total Number of Cells per Dish", "setting": "[5]; TG 400 nM, 4 Gy 2 hours after TG", "value": "0.3 10^6"}, {"measurement": "Total Number of Cells per Dish", "setting": "[5]; TG 400 nM, 8 Gy 2 hours after TG", "value": "0.3 10^6"}, {"measurement": "cell proliferation in vitro (result in words)", "setting": "[5]; summary of Table 1", "value": "inhibits cell proliferation in vitro"}, {"measurement": "inhibition of pumps of erythrocytes, plasma, or mitochondrial membranes", "setting": "[6]", "value": "not"}]}, {"compound": "COC(=O)CCC(=O)N[C@@H](CCCNC(=N)N)C(=O)N1CCC[C@H]1C(=O)N[C@@H](Cc1ccc(O)cc1)C(=O)Nc1ccc([N+](=O)[O-])cc1", "note": "[compound 2] (MeOSuc-Arg-Pro-Tyr-pNA)", "values": [{"measurement": "cleavage, release of pNA", "setting": "[7]", "value": "neither newborn calf serum, nor pooled human serum cleaved"}, {"measurement": "cleavage, release of pNA", "setting": "[8]", "value": "neither newborn calf serum, nor pooled human serum cleaved"}]}]}
